The values below come from patent US20230089073A1 (Carmot Therapeutics, Inc., priority 2021, published 2023).

pEC50: −log10 of the molar value. Some results are limits rather than exact numbers.

In the assay the target is T1, human GLP-1 receptor (Homo sapiens, UniProt P43220).
T1 construct: expressed in transfected cells
T1 sequence (P43220 24-463): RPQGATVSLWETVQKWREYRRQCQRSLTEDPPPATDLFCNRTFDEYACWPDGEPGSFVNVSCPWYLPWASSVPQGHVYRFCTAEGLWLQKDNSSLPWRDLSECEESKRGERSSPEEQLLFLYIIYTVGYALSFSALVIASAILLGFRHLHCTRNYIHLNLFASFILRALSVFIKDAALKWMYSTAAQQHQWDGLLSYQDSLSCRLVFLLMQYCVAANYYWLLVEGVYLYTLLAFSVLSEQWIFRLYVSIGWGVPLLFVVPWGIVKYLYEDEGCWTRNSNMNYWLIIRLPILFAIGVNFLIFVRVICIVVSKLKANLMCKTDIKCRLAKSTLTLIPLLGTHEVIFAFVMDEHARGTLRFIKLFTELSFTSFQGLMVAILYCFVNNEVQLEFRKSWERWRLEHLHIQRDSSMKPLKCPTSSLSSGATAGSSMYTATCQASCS
The experiment in a line: GLP-1R cAMP Assay. In kind it is cell-based. Particulars: cAMP accumulation in CHO cells stably overexpressing the human GLP-1 receptor; 30 min treatment; HitHunter cAMP kit; read-out: EC50. An outline of the steps: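 Luminescent enzyme-complementation detection of cAMP, read after cell lysis and overnight incubation, with dose-response curve fitting. Stimulation lasted 30 min, using 20-point triplicate dosing on CHO cells (10,000 per well) stably overexpressing human GLP-1R.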
On the technique in general: cAMP levels reflect the balance of adenylyl cyclase and phosphodiesterase activity.
For `Cc1ccc(N(C)Cc2cccc(C(=O)N3CCN(Cc4nc5ccc(C(=O)O)cc5n4C[C@@H]4CCO4)CC3)c2)c(Cl)c1` [Example 78, (S)-2-((4-(3-(((2-Chloro-4-methylphenyl)(methyl)amino)methyl)benzoyl)piperazin-1-yl)methyl)-1-(oxetan-2-ylmethyl)-1H-benzo[d]imidazole-6-carboxylic acid], the pEC50 was below 6.30. On to `N#Cc1ccc(COc2cccc(C3CCN(C(=O)c4ccc(-c5nnn[nH]5)nc4)CC3)n2)c(F)c1` [Example 83, 4-(((6-(1-(6-(1H-Tetrazol-5-yl)nicotinoyl)piperidin-4-yl)pyridin-2-yl)oxy)methyl)-3-fluorobenzonitrile], for which the pEC50 was above 7.30. For the compound `Cc1cc(C(C)C)ccc1Oc1cccc(C(=O)N2CCN(Cc3nc4ccc(C(=O)O)cc4n3C[C@@H]3CCO3)CC2)c1` [Example 89, (S)-2-((4-(3-(4-Isopropyl-2-methylphenoxy)benzoyl)piperazin-1-yl)methyl)-1-(oxetan-2-ylmethyl)-1H-benzo[d]imidazole-6-carboxylic acid], the pEC50 was 6.30 to 7.30. In the case of `O=C(O)c1ccc2nc(CN3CCc4[nH]c5c(OCc6ccc(Cl)cc6F)cccc5c4C3)n(C[C@@H]3CCO3)c2c1` [Example 90, (S)-2-((6-((4-Chloro-2-fluorobenzyl)oxy)-1,3,4,5-tetrahydro-2H-pyrido[4,3-b]indol-2-yl)methyl)-1-(oxetan-2-ylmethyl)-1H-benzo[d]imidazole-6-carboxylic acid], the pEC50 was below 6.30. In the case of `N#Cc1ccc(COc2cccc(C3CCN(C(=O)c4ccc(C(=O)O)nc4)CC3)n2)c(F)c1` [Example 91, 5-(4-(6-((4-Cyano-2-fluorobenzyl)oxy)pyridin-2-yl)piperidine-1-carbonyl)picolinic acid], the pEC50 is below 6.30. Consider `N#Cc1ccc(COc2cccc(N3CCN(C(=O)c4ccc(-c5nnn[nH]5)nc4)CC3)n2)c(F)c1` [Example 92, 4-(((6-(4-(6-(1H-Tetrazol-5-yl)nicotinoyl)piperazin-1-yl)pyridin-2-yl)oxy)methyl)-3-fluorobenzonitrile], for which the pEC50 was 6.30 to 7.30. Consider `Cc1ccc(N(C)c2cc(C(=O)N3CCN(Cc4nc5ccc(C(=O)O)cc5n4C[C@@H]4CCO4)CC3)ccc2F)c(Cl)c1` [Example 95, (S)-2-((4-(3-((2-Chloro-4-methylphenyl)(methyl)amino)-4-fluorobenzoyl)piperazin-1-yl)methyl)-1-(oxetan-2-ylmethyl)-1H-benzo[d]imidazole-6-carboxylic acid], for which the negative logarithm of the EC50 (pEC50) is 6.30 to 7.30.

On to `Cc1ccc(N(C)c2cc(C(=O)N3CCN(Cc4nc5ccc(C(=O)O)cc5n4C[C@@H]4CCO4)CC3)ccn2)c(Cl)c1` [Example 99, (S)-2-((4-(2-((2-Chloro-4-methylphenyl)(methyl)amino)isonicotinoyl)piperazin-1-yl)methyl)-1-(oxetan-2-ylmethyl)-1H-benzo[d]imidazole-6-carboxylic acid], for which the pEC50 is 6.30 to 7.30. `O=C(O)c1ccc2nc(CN3CCN(C(=O)c4cnc(COc5ccc(Cl)cc5Cl)o4)CC3)n(C[C@@H]3CCO3)c2c1` [Example 102, (S)-2-((4-(2-((2,4-Dichlorophenoxy)methyl)oxazole-5-carbonyl)piperazin-1-yl)methyl)-1-(oxetan-2-ylmethyl)-1H-benzo[d]imidazole-6-carboxylic acid]: the pEC50 was 6.30 to 7.30.

Turning to `Cc1ccc(N(C)c2cccc(C3(N4CCN(Cc5nc6ccc(C(=O)O)cc6n5C[C@@H]5CCO5)CC4)CC3)c2)c(Cl)c1` [Example 105, (S)-2-((4-(1-(3-((2-chloro-4-methylphenyl)(methyl)amino)phenyl)cyclopropyl)piperazin-1-yl)methyl)-1-(oxetan-2-ylmethyl)-1H-benzo[d]imidazole-6-carboxylic acid], the pEC50 is below 6.30. Then `Cc1ccc(N(C)c2cccc(C=C3CCN(Cc4nc5ccc(C(=O)O)cc5n4C[C@@H]4CCO4)CC3)c2)c(Cl)c1` [Example 106, (S)-2-((4-(3-((2-chloro-4-methylphenyl)(methyl)amino)benzylidene)piperidin-1-yl)methyl)-1-(oxetan-2-ylmethyl)-1H-benzo[d]imidazole-6-carboxylic acid], with 6.30 to 7.30; and `Clc1ccc(COc2cccc(C3=CCN(Cc4ccc(-c5nn[nH]n5)nc4)CC3)n2)c(Cl)c1` [Example 110, 1′-((6-(2H-Tetrazol-5-yl)pyridin-3-yl)methyl)-6-((2,4-dichlorobenzyl)oxy)-1′,2′,3′,6′-tetrahydro-2,4′-bipyridine], with 6.30 to 7.30. To `Cc1ccc(N(C)c2cccc(OC3CCN(Cc4nc5ccc(C(=O)O)cc5n4C[C@@H]4CCO4)CC3)c2)c(Cl)c1` [Example 111, (S)-2-((4-(3-((2-Chloro-4-methylphenyl)(methyl)amino)phenoxy)piperidin-1-yl)methyl)-1-(oxetan-2-ylmethyl)-1H-benzo[d]imidazole-6-carboxylic acid] belongs 6.30 to 7.30; to `Cc1ccc(C(C)c2cccc(C(=O)N3CCN(Cc4nc5ccc(C(=O)O)cc5n4C[C@@H]4CCO4)CC3)c2)c(Cl)c1` (stereo partly drawn) [Example 112, 2-((4-(3-(1-(2-Chloro-4-methylphenyl)ethyl)benzoyl)piperazin-1-yl)methyl)-1-(((S)-oxetan-2-yl)methyl)-1H-benzo[d]imidazole-6-carboxylic acid], 6.30 to 7.30; to `Cc1ccc(OCc2cccc(CC3CCN(Cc4nc5ccc(C(=O)O)cc5n4C[C@@H]4CCO4)CC3)n2)c(C#N)c1` [Example 114, (S)-2-((4-((6-((2-Cyano-4-methylphenoxy)methyl)pyridin-2-yl)methyl)piperidin-1-yl)methyl)-1-(oxetan-2-ylmethyl)-1H-benzo[d]imidazole-6-carboxylic acid], above 7.30. As to `Cc1cc(C2CC2)ccc1N(C)c1cccc(C(=O)N2CCN(Cc3nc4ccc(C(=O)O)cc4n3C[C@@H]3CCO3)CC2)c1` [Example 115, (S)-2-((4-(3-((4-Cyclopropyl-2-methylphenyl)(methyl)amino)benzoyl)piperazin-1-yl)methyl)-1-(oxetan-2-ylmethyl)-1H-benzo[d]imidazole-6-carboxylic acid], the pEC50 was above 7.30. Regarding `Cc1ccc(N(C)c2cccc(CC3CCN(Cc4nc5ccc(C(=O)O)cc5n4C[C@@H]4CCO4)CC3)c2)c(Cl)c1` [Example 116, (S)-2-((4-(3-((2-Chloro-4-methylphenyl)(methyl)amino)benzyl)piperidin-1-yl)methyl)-1-(oxetan-2-ylmethyl)-1H-benzo[d]imidazole-6-carboxylic acid], the pEC50 was above 7.30. To `O=C(O)c1ccc2nc(CN3CCc4c([nH]c5c(OCc6ccc(Cl)cc6F)cccc45)C3)n(C[C@@H]3CCO3)c2c1` [Example 121, (S)-2-((8-((4-Chloro-2-fluorobenzyl)oxy)-1,3,4,9-tetrahydro-2H-pyrido[3,4-b]indol-2-yl)methyl)-1-(oxetan-2-ylmethyl)-1H-benzo[d]imidazole-6-carboxylic acid] belongs below 6.30; to `CCn1cncc1Cn1c(CN2CCC(Cc3ccnc(COc4ccc(Cl)cc4Cl)c3)CC2)nc2ccc(C(=O)O)cc21` [Example 128, 2-((4-((2-((2,4-Dichlorophenoxy)methyl)pyridin-4-yl)methyl)piperidin-1-yl)methyl)-1-((1-ethyl-1H-imidazol-5-yl)methyl)-1H-benzo[d]imidazole-6-carboxylic acid], above 7.30.

A word on the pEC50: it is the negative decadic logarithm of the EC50, by convention in mol/L.
